Drawing on PMC5819394 (Proceedings of the National Academy of Sciences of the …, 2018), this text covers Km for two compounds.

Like-named read-outs stand apart in the source and are kept apart here.

This test concerns GenL. Format: biochemical, Micromonospora echinospora.

In the case of `CN[C@@H]1[C@@H](O)[C@@H](O[C@@H]2[C@@H](O)[C@H](O[C@H]3O[C@H](CN)CC[C@H]3N)[C@@H](N)C[C@H]2N)OC[C@]1(C)O` [C1a], the Km turned out to be 347 ± 86 µM. Consider `CN[C@@H]1[C@@H](O)[C@@H](O[C@@H]2[C@@H](O)[C@H](O[C@H]3O[C@H]([C@@H](C)N)CC[C@H]3N)[C@@H](N)C[C@H]2N)OC[C@]1(C)O` [C2], for which the Km (SAM as methyl donor, integrated Michaelis-Menten fit) was determined as 77.8 ± 8 µM.

As usually defined, the Km is the substrate concentration at which the rate is half of its maximum.
